The source of these data is US7291641B2, “Derivatives of heterocycles with 5 members, their preparation and their use as medicaments” (Societe de Conseils de Recherches et d'Applications …, priority 1999, dated 2007).

Structures can show the parent of a compound that is named as a salt.

A word on the melting point: it is the temperature, or range, at which the solid turns liquid. The compound `CCCCOC(=O)NC(C)(C)c1nc(-c2ccc(-c3ccccc3)cc2)c[nH]1` [Example 238, 4-(2-{1-[(butoxycarbonyl)amino]-1-methylethyl}-1H-imidazol-4-yl)-1,1′-biphenyl] yielded a melting point of 170 to 172 °C.
The compound `CCOC(=O)NCCc1nc(-c2ccc(-c3ccccc3)cc2)c[nH]1` [Example 246, 4-(2-{2-[(ethoxycarbonyl)amino]ethyl}-1H-imidazol-4-yl)-1,1′-biphenyl] showed a melting point of 132.5 °C.
Next, `Fc1ccc(-c2c[nH]c([C@@H](NC3CCC3)C3CCCCC3)n2)cc1` [Example 35, N-{(S)-cyclohexyl[4-(4-fluorophenyl)-1H-imidazol-2-yl]methyl}cyclobutanamine]: 170 to 172 °C; `c1ccc(CN[C@H](Cc2ccccc2)c2nc(-c3ccccc3)c[nH]2)cc1` [Example 48, (1R)-N-benzyl-2-phenyl-1-(4-phenyl-1H-imidazol-2-yl)ethanamine]: 228 to 230 °C.
The same measure for `Brc1cccc(-c2c[nH]c([C@@H](NC3CCCCC3)C3CCCCC3)n2)c1` (as salt: hydrochloride) [Example 297, N-[(S)-[4-(3-bromophenyl)-1H-imidazol-2-yl](cyclohexyl)methyl]-cyclohexanamine]: 230.4 °C; for `CC[C@H](N)c1nc(-c2ccccc2)c(-c2ccccc2)[nH]1` (as salt: hydrochloride) [Example 199, (1S)-1-(4,5-diphenyl-1H-imidazol-2-yl)-1-propanamine]: 224 to 226 °C.
For `CC(C)(C)c1ccc(-c2c[nH]c(CCNC(=O)OCC3CCC3)n2)cc1` [Example 340, cyclobutylmethyl 2-[4-(4-tert-butylphenyl)-1H-imidazol-2-yl]ethylcarbamate], the melting point was found to be 103 °C.
The same measure for `O=C(NCCc1nc(-c2ccc(N3CCCC3)cc2)c[nH]1)OCC1CCCCC1` [Example 326, cyclohexylmethyl 2-[4-(4-pyrrolidin-1-ylphenyl)-1H-imidazol-2-yl]ethylcarbamate]: 128.5 °C; for `CCC[C@@H](NC(=O)OC(C)(C)C)c1nc(-c2ccc(-c3ccccc3)cc2)c[nH]1` [Example 208, 4-(2-{(1R)-1-[(tert-butoxycarbonyl)amino]butyl}-1H-imidazol-4-yl)-1,1′-biphenyl]: 145.6 °C.
The same measure for `CCCCCCC(NCc1ccccc1)c1nc(-c2ccc(C)cc2)c[nH]1` (racemic) (as salt: hydrochloride) [Example 200, (R,S)-N-benzyl-1-[4-(4-methylphenyl)-1H-imidazol-2-yl]-1-heptanamine]: 185 to 188 °C.
`CC(C)(C)OC(=O)NCc1nc(-c2ccccc2)cn1Cc1ccccc1` [Example 104, tert-butyl (1-benzyl-4-phenyl-1H-imidazol-2-yl)methylcarbamate] registered a melting point of 140 to 142 °C.
`CC(C)(C)CC(=O)NCCc1nc(-c2ccc(-c3ccccc3)cc2)c[nH]1` [Example 61, N-[2-(4-[1,1′-biphenyl]-4-yl-1H-imidazol-2-yl)ethyl]-3,3-dimethyl-butanamide] had a melting point of 186 to 188 °C.
In turn, `CCCCOC(=O)NCCc1nc(-c2ccc(-c3ccc(Br)cc3)cc2)c[nH]1` [Example 281, 4-bromo-4′-(2-{2-[(butoxycarbonyl)amino]ethyl}-1H-imidazol-4-yl)-1,1′-biphenyl] had a melting point of 166 °C.
The same measure for `FC(F)(F)Oc1ccc(-c2c[nH]c([C@@H](NC3CCC3)C3CCCCC3)n2)cc1` [Example 270, N-((S)-cyclohexyl{4-[4-(trifluoromethoxy)phenyl]-1H-imidazol-2-yl}methyl)-cyclobutanamine]: 136 to 140 °C.
`Fc1cccc(-c2c[nH]c([C@@H](NCC3CCCCC3)C3CCCCC3)n2)c1` (as salt: hydrochloride) [Example 312, (S)-1-cyclohexyl-N-(cyclohexylmethyl)-1-[4-(3-fluorophenyl)-1H-imidazol-2-yl]methanamine] returned a melting point of 180 to 186 °C.
